Experimental data published in patent publication US10155777B2, “Trans-cycloheptenes and hetero-trans-cycloheptenes for bioorthogonal coupling” (UNIVERSITY OF DELAWARE, priority 2015, dated 2018).

Assay: Rate of tetrazine ligation, by restoring of fluorescence, stopped-flow spectrophotometer
Details: 9:1 H2O:MeOH at 25° C., low concentration
Source text: The rate of the reaction between (E)-Si-(4-hydroxybutyl)-Si-methyl-5-silacycloheptene and tetramethylrhodamine-conjugated dipyridyl tetrazine was studied. The results are shown in Scheme 2. With a rate constant that exceeds 10^7 M^−1s^−1 (Scheme 2), (E)-Si-(4-hydroxybutyl)-Si-methyl-5-silacycloheptene is the most reactive dienophile to date for bioorthogonal applications. As the reaction was too rapid for reliable rate determination by UV-vis kinetics, the inventors determined the rate of the reaction by the restoring of fluorescence after tetrazine ligation at low concentration in 9:1 H2O:MeOH at 25° C. by using an SX 18MV-R stopped-flow spectrophotometer (Applied Photophysics Ltd.). This is depicted in Scheme 4.

C[Si]1(CCCCO)CCC=CCC1 [(E)-Si-(4-hydroxybutyl)-Si-methyl-5-silacycloheptene]
rate constant of reaction with tetrazine: exceeds 10^7 M^−1s^−1
